Results taken from patent US9000039B2, “Sn-1(3) monoacylglycerides and lipid absorption” (Nestec S.A., priority 2011, dated 2015).

Experiment: lipid maldigestion or malabsorption animal model (Orlistat): EPA incorporation in red blood cell lipids
Format: in vivo, rats
Protocol: The inventors tested their concept in a lipid maldigestion/malabsorption animal model. The malabsorption condition was obtained using Orlistat®, a well known pancreatic and gastric lipases inhibitor. Animals were fed with long-chain polyunsaturated fatty acid (LC-PUFA) supplements containing mainly eicosapentaenoic (EPA) acid. Fish oil was used as a source of triacylglycerols and different EPA glycerides, for example those of FIG. 1, were evaluated. At different time intervals the fatty acid profile of red blood cell and plasma lipids was assessed. At the end of the experiment, fatty acid profiles of different tissues were determined. […] However, if LC-PUFA are provided as sn-1(3) MAGs the incorporation in tissue is not altered in conditions of lipid malabsorption/maldigestion.
Treatments: Control rats fed fish oil with or without Orlistat and rats fed with MAGs described in FIG. 1. Values are means±SEM (n=6).
The concept was tested in a lipid maldigestion or malabsorption animal model. The maldigestion or malabsorption condition was obtained using Orlistat, a well known pancreatic and gastric lipases inhibitor. Animals were fed during 21 days with long-chain polyunsaturated fatty acid (LC-PUFAs) supplements containing mainly eicosapentaenoic (EPA) acid. Fish oil was used as a source of triacylglycerols and the different EPA glycerides provided in FIG. 1 and purchased from Cognis GmbH, Germany, were evaluated. Orlistat was given at a level sufficient to decrease lipid absorption by 40%. A group receiving fish oil without Orlistat was used as a positive control. At different time intervals (D-3, D7, D14 and D21), fatty acid profile of red blood cell and plasma lipids were performed. At the end of the experiment, fatty acid profiles of different tissues were determined.
The main objective was to follow the level of EPA in red blood cell and plasma lipids. The main comparison evaluated was the difference in EPA level between groups receiving EPA containing MAGs (FIG. 1) in combination with Orlistat and the positive control group […].

| SMILES | effect on EPA incorporation in red blood cells (group receiving fish oil in combination or not with Orlistat, validates the model) | level of EPA incorporated in red blood cells, compared with the fish oil group (without Orlistat) (rats fed MAGs in combination with Orlistat, day 7, FIG. 2) | level of EPA incorporated in red blood cells, compared with the fish oil+Orlistat group (rats fed MAGs in combination with Orlistat, day 7, all P values lower than 0.05, FIG. 2) | fatty acid absorption compared with fish oil under normal conditions (under maldigestion/malabsorption conditions, FIG. 2) |
| --- | --- | --- | --- | --- |
| CCCCCCCCCCC[C@@H](C[C@@H]1OC(=O)[C@H]1CCCCCC)OC(=O)[C@H](CC(C)C)NC=O [Orlistat, reference compound] | decrease EPA incorporation in red blood cells | – | – | – |
| CC/C=C\C/C=C\C/C=C\C/C=C\C/C=C\CCCC(=O)OCC(O)CO (stereo not shown) [sn-1(3) monoeicosapentaenoylglycerol, sn-1(3)-monoeicosapentaenoylglycerol] | – | even higher than the fish oil group | statistically higher | better absorbed |
